# Laboratory results published in paper PMC8245078, “Development of novel benzofuran-isatin conjugates as potential antiproliferative agents with apoptosis inducing mechanism in Colon cancer” (Journal of Enzyme Inhibition and Medicinal Chemistry, 2021).
# Legend:
# Breast Cancer subpanel = type: cell-based, human
# MALME-3M = type: cell-based, human; conditions: five-dose test
# NCI/ADR-RES = type: cell-based; conditions: Homo sapiens, five-dose test
# BT-549 = type: cell-based; conditions: BT-549, five-dose test
# SF-268 = type: cell-based; conditions: SF-268, five-dose test
# RXF 393 = type: cell-based, human; conditions: RXF 393, five-dose test
# K-562 = type: cell-based; conditions: K-562, five-dose test
# MCF7 = type: cell-based; conditions: MCF7, five-dose test
# SF-539 = type: cell-based, human; conditions: SF-539, five-dose test
# Melanoma subpanel = type: cell-based, human
# U251 = type: cell-based, human; conditions: U251, five-dose test
# NCI-H226 = type: cell-based; conditions: Homo sapiens, NCI-H226, five-dose test
# CNS Cancer subpanel = type: cell-based, human
# SNB-19 = type: cell-based; conditions: SNB-19, five-dose test
# SR = type: cell-based; conditions: five-dose test
# [1] = system: non-small cell lung cancer subpanel; type: cell-based, human
# CCRF-CEM = type: cell-based; conditions: five-dose test
# A498 = type: cell-based, human; conditions: A498, five-dose test
# SN12C = type: cell-based; conditions: five-dose test
# HCT-15 = type: cell-based; conditions: HCT-15, five-dose test
# HOP-92 = type: cell-based, human; conditions: HOP-92, five-dose test
# KM12 = type: cell-based; conditions: KM12, five-dose test
# NCI-H23 = type: cell-based; conditions: NCI-H23, five-dose test
# SW-620 = type: cell-based; conditions: SW-620, five-dose test
# HS 578 T = type: cell-based; conditions: five-dose test
# ACHN = type: cell-based; conditions: Homo sapiens, five-dose test
# LOX IMVI = type: cell-based; conditions: five-dose test
# UACC-62 = type: cell-based; conditions: UACC-62, five-dose test
# Ovarian Cancer subpanel = type: cell-based, human
# OVCAR-5 = type: cell-based; conditions: Homo sapiens; OVCAR-5, five-dose test; read-out: LC50 (the source's name)
# T-47D = type: cell-based; conditions: Homo sapiens, T47D, five-dose test
# IGROV1 = type: cell-based; conditions: Homo sapiens, IGROV-1; IGROV1, five-dose test
# DU-145 = type: cell-based; conditions: Homo sapiens; DU-145, five-dose test
# [2] = Homo sapiens, read-out: LC50 (the source's name)
structure (smiles),measurement,setting,value
COc1ccc2c(c1)/C(=N/NC(=O)c1oc3ccccc3c1C)C(=O)N2 [Compound 5d],GI50,"Breast Cancer subpanel; Homo sapiens, Breast Cancer subpanel, read-out: MG-MID (GI50 average of the subpanel)",2.83 µM
same,Selectivity index,"Breast Cancer subpanel; full panel MID / subpanel MID, Breast Cancer",0.88
same,GI50,MALME-3M; Homo sapiens,1.81 µM
same,TGI,MALME-3M,3.79 µM
same,GI50,NCI/ADR-RES,2.47 µM
same,LC50,NCI/ADR-RES,> 100 µM
same,TGI,BT-549,33.7 µM
same,GI50,BT-549; Homo sapiens,5.38 µM
same,LC50 (concentration causing 50% net cell kill),BT-549; Homo sapiens,> 100 µM
same,GI50,SF-268; Homo sapiens,5.18 µM
same,CC50,SF-268; [2],> 100 µM
same,TGI,SF-268,56.8 µM
same,GI50,RXF 393; Homo sapiens,1.79 µM
same,TGI,RXF 393,3.70 µM
same,CC50,"K-562; Homo sapiens, K562, read-out: LC50 (the source's name)",> 100 µM
same,TGI,K-562,>100 µM
same,CC50,MCF7; [2],> 100 µM
same,TGI,MCF7,>100 µM
same,GI50,SF-539; Homo sapiens,1.66 µM
same,TGI,SF-539,3.16 µM
same,GI50,"Melanoma subpanel; Homo sapiens, Melanoma subpanel, read-out: MG-MID (GI50 average of the subpanel)",3.18 µM
same,Selectivity index,"Melanoma subpanel; full panel MID / subpanel MID, Melanoma",0.78
same,GI50,"U251; Homo sapiens, U-251",2.03 µM
same,TGI,U251,4.26 µM
same,GI50,NCI-H226,2.19 µM
same,CC50,NCI-H226; read-out: LC50 (the source's name),> 100 µM
same,GI50,"CNS Cancer subpanel; Homo sapiens, CNS Cancer subpanel, read-out: MG-MID (GI50 average of the subpanel)",2.6 µM
same,Selectivity index,"CNS Cancer subpanel; full panel MID / subpanel MID, CNS Cancer",0.96
same,GI50,SNB-19; Homo sapiens,3.45 µM
same,CC50,SNB-19; [2],> 100 µM
same,TGI,SNB-19,16.2 µM
same,CC50,SR; [2],> 100 µM
same,TGI,SR,>100 µM
same,GI50,"[1]; Homo sapiens, non-small cell lung cancer subpanel, read-out: MG-MID (GI50 average of the subpanel)",2.8 µM
same,Selectivity index,"[1]; full panel MID / subpanel MID, non-small cell lung cancer",0.89
same,CC50,CCRF-CEM; [2],> 100 µM
same,TGI,CCRF-CEM,>100 µM
same,TGI,A498,4.04 µM
same,GI50,A498; Homo sapiens,1.63 µM
same,GI50,SN12C; Homo sapiens,2.82 µM
same,CC50,SN12C; [2],> 100 µM
same,TGI,SN12C,>100 µM
same,TGI,HCT-15,>100 µM
same,LC50,HCT-15; Homo sapiens,> 100 µM
same,TGI,HOP-92,3.98 µM
same,GI50,HOP-92; Homo sapiens,1.84 µM
same,CC50,KM12; [2],> 100 µM
same,TGI,KM12,>100 µM
same,GI50,NCI-H23; Homo sapiens,1.86 µM
same,LC50,NCI-H23; Homo sapiens,> 100 µM
same,TGI,NCI-H23,4.43 µM
same,CC50,SW-620; [2],> 100 µM
same,TGI,SW-620,>100 µM
same,GI50,HS 578 T; Homo sapiens,2.41 µM
same,LC50,HS 578 T; Homo sapiens,> 100 µM
same,TGI,HS 578 T,7.72 µM
same,GI50,ACHN,1.77 µM
same,GI50,LOX IMVI; Homo sapiens,3.16 µM
same,CC50,LOX IMVI; [2],> 100 µM
same,TGI,LOX IMVI,>100 µM
same,GI50,UACC-62; Homo sapiens,5.19 µM
same,CC50,UACC-62; [2],> 100 µM
same,TGI,UACC-62,>100 µM
same,GI50,"MDA-MB-468; Homo sapiens, MDA-MB-468",2.6 µM
same,CC50,"MDA-MB-468; Homo sapiens, MDA-MB-468, read-out: LC50",> 100 µM
same,TGI,"MDA-MB-468; MDA-MB-468, five-dose test",6.52 µM
same,GI50,"Ovarian Cancer subpanel; Homo sapiens, Ovarian Cancer subpanel, read-out: MG-MID (GI50 average of the subpanel)",2.29 µM
same,Selectivity index,"Ovarian Cancer subpanel; full panel MID / subpanel MID, Ovarian Cancer",1.09
same,CC50,OVCAR-5,> 100 µM
same,GI50,T-47D,1.7 µM
same,LC50,T-47D,> 100 µM
same,GI50,IGROV1,2.1 µM
same,LC50,IGROV1,> 100 µM
same,LC50,DU-145,> 100 µM
